The results in this text go back to patent publication US6025378A, “Bicyclic heterocyclic compounds” (Bayer Aktiengesellschaft, priority 1995, dated 2000).

The IC50 is the concentration that inhibits the measured activity by half.

The subject of one experiment is ApoB-100-associated lipoproteins released from HepG2 cells. Briefly: Inhibition of the release of ApoB-100-associated lipoproteins from cultured hepatic HepG2 cells (immunoassay for human LDL). The class given is cell-based. As to conditions: HepG2 cells; culture supernatant; absorption at 450 nm inhibited by 50% vs solvent control; read-out: Apo B IC50. As for the experimental part:
1. Inhibition of the Release of ApoB-100-associated Lipoproteins
The test for detection of the inhibition of the release of ApoB-100-associated lipoproteins from hepatic cells was carried out in vitro with cultured hepatic cells, preferably with cells of the human line HepG2. These cells are cultured under standard conditions in medium for culture of eukaryotic cells, preferably in RPMI 1640 with 10% foetal calf serum. HepG2 cells synthesize and secrete into the culture supernatant ApoB-100-associated lipoprotein particles, which are in principle built up similarly to the VLDL and LDL particles which are to be found in plasma.
These particles can be detected with an immunoassay for human LDL. This immunoassay is carried out with antibodies which have been induced against human LDL in rabbits under standard conditions. The anti-LDL antibodies (rab-anti-LDL-Ab) were purified by affinity chromatography on an immunosorbent with human LDL. These purified rab-anti-LDL-Ab are adsorbed onto the surface of plastic. This adsorption is expediently carried out on the plastic surface of microtiter plates with 96 wells, preferably on MaxiSorp plates. If ApoB-100-associated particles are present in the supernatant of Hep-G2 cells, these can bond to the insolubilized rab-anti-LDL-Ab, and an immune complex bonded to the plastic surface is formed. Non-bonded proteins are removed by washing The immune complex on the plastic source is detected with monoclonal antibodies, which have been induced against human LDL and purified under standard conditions. These antibodies were conjugated with the enzyme peroxidase. Peroxidase converts the colourless substrate TMB into a coloured product in the presence of H2 O2. After acidification of the reaction mixture with H2 SO4, the specific absorption of light is determined at 450 nm, this being a measure of the amount of ApoB-100-associated particles wich had been secreted by the HepG2 cells into the culture supernatant.
The IC50 value indicates the concentration of substance at which the absorption of light is inhibited by 50% compared with the control (solvent control without the substance).
Turning to `Cc1cccc2c1[nH]c(=S)n2Cc1ccc(C(C(=O)N[C@@H](CO)c2ccccc2)C2CCCC2)cc1` (stereo partly shown) [Example 53], the IC50 amounted to 1690 nM.

As for `Cc1cccc2c1[nH]c(=S)n2Cc1ccc(C(C(=O)N[C@@H](CO)c2ccccc2)C2CCCC2)cc1` (stereo partly shown) [Example 54], the 50% inhibitory concentration (IC50) was 60.2 nM.

As for `Cc1cccc2c1[nH]c(=S)n2Cc1ccc(C(C(=O)N[C@@H](CO)c2ccccc2)C2CCCC2)cc1` (stereo partly shown) [Example 55], the IC50 amounted to 19.5 nM.

For `O=C(N[C@@H](CO)c1ccccc1)C(c1ccc(CN2C(=O)COc3cccnc32)cc1)C1CCCCCC1` (stereo partly shown) [Example 57], the half-maximal inhibitory concentration (IC50) came out at 5 nM.

`O=C(N[C@@H](CO)c1ccccc1)C(c1ccc(CN2C(=O)COc3cccnc32)cc1)C1CCCCCC1` (stereo partly shown) [Example 58]: the IC50 worked out at 251 nM.

Turning to `O=C(N[C@@H](CO)c1ccccc1)C(c1ccc(CN2C(=O)c3ccccc3C2=O)cc1)C1CCCCCC1` (stereo partly shown) [Example 60], the concentration for half-maximal inhibition (IC50) was 9.7 nM.

Consider `O=C(N[C@@H](CO)c1ccccc1)C(c1ccc(CN2C(=O)c3ccccc3C2=O)cc1)C1CCCCCC1` (stereo partly shown) [Example 61], for which the concentration for half-maximal inhibition (IC50) worked out at 38.9 nM.

Take `O=C(N[C@@H](CO)c1ccccc1)C(c1ccc(CN2C(=O)c3ccccc3C2=O)cc1)C1CCCCCC1` (stereo partly shown) [Example 62]: the concentration for half-maximal inhibition (IC50) was determined as 123 nM.

As to `CCc1nc2ccccc2c(=O)n1Cc1ccc(C(C(=O)N[C@@H](CO)c2ccccc2)C2CCCC2)cc1` (stereo partly shown) [Example 67], the IC50 turned out to be 27.4 nM.

For the compound `CCc1nc2ccccc2c(=O)n1Cc1ccc(C(C(=O)N[C@@H](CO)c2ccccc2)C2CCCC2)cc1` (stereo partly shown) [Example 68], the half-inhibitory concentration (IC50) came out at 70.6 nM.

In the case of `O=C(N[C@@H](CO)c1ccccc1)C(c1ccc(Cn2nc(-c3ccc(Cl)cc3)c3ccccc3c2=O)cc1)C1CCCC1` (stereo partly shown) [Example 76], the half-maximal inhibitory concentration (IC50) came to 37.2 nM.

Consider `O=C(N[C@@H](CO)c1ccccc1)C(c1ccc(Cn2nc(-c3ccc(Cl)cc3)c3ccccc3c2=O)cc1)C1CCCC1` (stereo partly shown) [Example 77], for which the half-maximal inhibitory concentration (IC50) was 14.9 nM.

For `O=C(N[C@@H](CO)c1ccccc1)C(c1ccc(Cn2nc(-c3ccc(Cl)cc3)c3ccccc3c2=O)cc1)C1CCCC1` (stereo partly shown) [Example 78], the IC50 amounted to 279 nM.

Staying with this experiment, now noted: Homo sapiens, HepG2, HepG2 cells; culture supernatant; absorption at 450 nm inhibited by 50% vs solvent control; read-out: Apo B IC50.
With `O=C(NCc1ccccc1)C(c1ccc(Cn2c(-c3ccccn3)nc3ccccc32)cc1)C1CCCCCC1` (stereo not shown) [Example 48], the half-maximal inhibitory concentration (IC50) amounted to 6.3 nM.

With `O=C(N[C@@H](CO)c1ccccc1)C(c1ccc(Cn2c(-c3cccnc3)nc3ccccc32)cc1)C1CCCC1` (stereo partly shown) [Example 49], the IC50 turned out to be 3.6 nM.

With `O=C(N[C@@H](CO)c1ccccc1)C(c1ccc(Cn2c(-c3ccncc3)nc3ccccc32)cc1)C1CCCC1` (stereo partly shown) [Example 50], the IC50 amounted to 17.9 nM.

Take `O=C(N[C@@H](CO)c1ccccc1)C(c1ccc(Cn2c(=O)oc3ccccc32)cc1)C1CCCCCC1` (stereo partly shown) [Example 51]: the IC50 came to 5.7 nM.

For the compound `O=C(N[C@@H](CO)c1ccccc1)C(c1ccc(Cn2c(=S)[nH]c3ccccc32)cc1)C1CCCCCC1` (stereo partly shown) [Example 52], the IC50 stood at 518 nM.

Regarding `O=C(N[C@@H](CO)c1ccccc1)C(c1ccc(CN2C(=O)CSc3ccccc32)cc1)C1CCCCCC1` (stereo partly shown) [Example 59], the IC50 stood at 29.2 nM.

As for `O=C(N[C@@H](CO)c1ccccc1)C(c1ccc(CN2C(=O)c3ccncc3C2=O)cc1)C1CCCCCC1` (stereo partly shown) [Example 63], the IC50 stood at 5.9 nM.

On to `O=C(N[C@@H](CO)c1ccccc1)C(c1ccc(Cn2ncc3ccccc3c2=O)cc1)C1CCCCCC1` (stereo partly shown) [Example 70], for which the IC50 came out at 58.8 nM.

On to `CCCCc1nn(Cc2ccc(C(C(=O)N[C@@H](CO)c3ccccc3)C3CCCC3)cc2)c(=O)c2ccccc12` (stereo partly shown) [Example 73], for which the 50% inhibitory concentration (IC50) stood at 29.4 nM.
